According to US11559575B2, “Multi-epitopic peptide compounds and vaccines against leishmaniasis” (INSTITUT DE RECHERCHE POUR LE DEVELOPPEMENT, priority 2018, dated 2023):
“Also recorded” adds a separate entry of the source.

Assays:
[1] = system: CD4+ T cells of a naive individual (MPL10); assay: IFN-γ ELISPOT with CD4+ T cells and autologous dendritic cells of a naive individual (long protocol, three stimulations); type: cell-based, human
Procedure: The immunogenicity was evaluated, with combinations of peptides (combination corresponding to the “Pool H”) at 1 μM for each peptide, from samplings of blood of naive individuals and according to a long protocol with at least three successive stimulations. An IFN-γ ELISPOT test for measuring the frequency of the pre-existing naive T cells and the amplitude of the specific naive T repertoire for each peptide, was performed with the CD4+ T cells and the autologous dendritic cells of a naive individual in the presence or absence of the mixture of peptides, or in the presence of each peptide individually. […] The “Pool H” combination was used either with peptides not modified at the amino-terminal end and with amidation of the carboxy-terminal end, or with peptides chemically modified by a palmitoyl tail at the amino-terminal end and with amidation of the carboxy-terminal end.
The evaluation of the immunogenicity properties of peptide compounds according to the invention in naive individuals, persons who have never been in contact with the Leishmania parasite, is an important factor in predicting the efficacy of a peptide vaccine (Kwok WW et al, 2012, Frequency of epitope-specific naive CD4(+) T cells correlates with immunodominance in the human memory repertoire; Castelli F A et al, 2007, Differential capacity of T cell priming in naive donors of promiscuous CD4+ T cell epitopes of HCV NS3 and Core proteins). Immunogenicity is evaluated in vitro by measuring the frequency of the pre-existing naive T cells and the amplitude of the naive T repertoire specific for each compound. The evaluation is carried out using blood samples from naive individuals and in accordance with a long protocol (Castelli F A, et al. 2007 as aforementioned) putting purified T lymphocytes in contact with autologous dendritic cells previously incubated with the peptides of the invention. The combination of peptides used is composed of: SEQ ID NO: 23, SEQ ID NO: 66, SEQ ID NO: 73, SEQ ID NO: 77, SEQ ID NO: 97, SEQ ID NO: 138, SEQ ID NO: 157, SEQ ID NO: 185, SEQ ID NO: B11, SEQ ID NO: B12 and SEQ ID NO: B13. The compounds were synthesized chemically without amino-terminal modification and with carboxy-terminal (peptide-NH2) amidation (NH2). After three successive stimulations at intervals of seven days of the CD4+ T cells of a naive individual (MPL10; Établissement français du sang de Toulouse), an IFN-γ ELISPOT was carried out with the cells in the presence or absence of the mixture of peptides, or in the presence of each compound individually. […] Each positive line responds to at least one of the peptides of the present invention. The MPL10-3 line responds to the peptides SEQ ID NO: 73 and SEQ ID NO: 157. The MPL10-4 line responds to the peptides SEQ ID NO: 23, SEQ ID NO: 73, SEQ ID NO: 77, SEQ ID NO: 97, SEQ ID NO: 138 and SEQ ID NO: 157. The MPL10-7 line responds to the peptides SEQ ID NO: 77, SEQ ID NO: 97 and SEQ ID NO: 157. The MPL10-8 line responds to the peptides SEQ ID NO: 66, SEQ ID NO: 73, SEQ ID NO: 97, SEQ ID NO: 138 and SEQ ID NO: 157. The MPL10-10 line responds to the peptides SEQ ID NO: 66, SEQ ID NO: 73, SEQ ID NO: 77, SEQ ID NO: 97, SEQ ID NO: 138, SEQ ID NO: 157 and SEQ ID NO: 185. And the MPL10-12 line responds to the peptides SEQ ID NO: 66, SEQ ID NO: 157 and SEQ ID NO: 185.
The evaluation of the immunogenicity properties of peptide compounds of the invention in the same naive individual (MPL10) but with chemically synthesized compounds with the addition of a palmitoylated tail at the amino-terminal end and with an NH2 group at the carboxy-terminal end (PAL-peptide-NH2) was also performed. The same combination of peptides as before was used. After three stimulations with the mixture of PAL-peptide-NH2 peptides, an IFN-g ELISPOT was carried out with the cells in the presence or absence of the mixture of peptides, or in the presence of each peptide individually. […]

[2] = system: HLA alleles of class I; assay: Affinity of epitopes for HLA alleles of class I; type: binding, human; conditions: for Affinity for the HLA alleles of class I: H2B-1 epitopes, Table 1; for Affinity allele class I: LmLRAB-IIA peptides
Excerpt: The multiepitopic peptide compounds (24 to 40-mer), having a high affinity with a maximized number of HLA molecules of class I and of class II, such as the affinities for the alleles HLA of class I and HLA of class II of the epitopes in the peptides of the sequences SEQ ID NO: 22, 23, 65, 66, 69, 73, 77, 96, 97, 137, 138, and 157, 185, have a high immunoprevalent potential corresponding to an optimal vaccine coverage, in particular for the populations concerned. The degree of coverage of the peptide compounds of the invention show a very high added value compared with the peptides of the prior art.

[3] = system: HLA alleles of class II; assay: Affinity of epitopes for HLA alleles of class II; type: binding, human; conditions: PSA KC-2.7 core, Table 3
[4] = MPL10-PAL-2 line, PAL-peptide-NH2
[5] = LmlRAB-IIB Peptide CII, Table 2

How did the “IFN-γ ELISPOT response of specific line to individual peptide” value [1, 4] turn out when “MSMSHRTMKSMSHRTMKIKAINAQMSMMERICTEAA (Leishmania major) [SEQ ID NO: 22]” was run?
Its value is “responds”.

With “RSARSGEGYF (listed as Leishmania infantum) [SEQ ID NO: 156]” as the substance, how does the “Concatenation affinity allele CII” value ([2]; PSA KC-2.6 Peptide CII, Table 3) read?
The value was “HLA-B*15:01, HLA-B*58:01”.

For “SDYSHSMIR (listed as Leishmania infantum) [SEQ ID NO: 177]”, which “Concatenation affinity for HLA alleles of class II” value [3] is on record?
Its value is “HLA-DRB1*07:01,; also recorded: HLA-DRB5*01:01”.

And the “Affinity for HLA alleles of class I” value ([2]; PSA KC-2.7 core, Table 3)?
The value was “HLA-A*31:01,; also recorded: HLA-A*68:01”.

How did the “Concatenation affinity for HLA alleles of class I” value [2, 5] turn out when “SENAIVTSR (Leishmania major) [SEQ ID NO: 134]” was run?
Its value is “HLA-A*31:01, HLA-B*44:03, HLA-A*68:01”.

Which results are given for “SEQ ID NO: 66: multiepitopic peptide compound of overlapping H2B epitopes of sequences SEQ ID NO: 24 to 64; sequence not printed (KGRKPKRSWNVYVGRSLKAINAQMSMSHRTMKIV; Leishmania major)”?
IFN-γ ELISPOT response of specific line to individual peptide ([1]; MPL10-8 line, peptide-NH2): responds; IFN-γ ELISPOT response of specific line to individual peptide ([1]; MPL10-10 line, peptide-NH2): responds; IFN-γ ELISPOT response of specific line to individual peptide ([1]; MPL10-12 line, peptide-NH2): responds; IFN-γ ELISPOT response of specific line to individual peptide [1, 4]: responds; IFN-γ ELISPOT response of specific line to individual peptide ([1]; MPL10-PAL-3 line, PAL-peptide-NH2): responds

With “SMIRDLDFS (listed as Leishmania infantum) [SEQ ID NO: 184]” as the substance, how does the “Concatenation affinity for HLA alleles of class I” value ([2]; PSA KC-2.7 peptides, Table 3) read?
Its value is “HLA-A*02:03, HLA-A*02:06”.

How did the “Affinity for the HLA alleles of class I” value [2] turn out when “SMSHRTMKSM (Leishmania major) [SEQ ID NO: 19]” was run?
The value was “HLA-B*15:01,; also recorded: HLA-B*57:01,; also recorded: HLA-A*02:03,; also recorded: HLA-B*08:01”.

For “SVVGRHLSI (Leishmania major) [SEQ ID NO: 94]”, which “Affinity allele class I” value ([2]; Table 2) is on record?
Its value is “HLA-A*02:03, HLA-A*02:06, HLA-A*32:01,; also recorded: HLA-B*08:01”.

“TMKSMSHRTM (Leishmania major) [SEQ ID NO: 21]” was tested. Which “Affinity for the HLA alleles of class I” value [2] did it give?
The value was “HLA-B*15:01,; also recorded: HLA-B*08:01”.

TSRKDQEEV [SEQ ID NO: 135] was tested. Which “Concatenation affinity for HLA alleles of class I” value [2, 5] did it give?
Its value is “HLA-B*15:01, HLA-A*30:01, HLA-A*68:02”.

With “VHYSEVSAK (Leishmania major) [SEQ ID NO: 136]” as the substance, how does the “Concatenation affinity for HLA alleles of class I” value [2, 5] read?
Its value is “HLA-A*03:01”.

Which “Affinity for HLA alleles of class I” value ([2]; LmlRAB-IIB core, Table 2) does the source give for “VQEEVFDLF (Leishmania major) [SEQ ID NO: 126]” here?
The value was “HLA-A*02:06”.

With “VVGRHLSIV (Leishmania major) [SEQ ID NO: 95]” as the substance, how does the “Affinity allele class I” value ([2]; Table 2) read?
The value was “HLA-A*02:03”.
